Assay results published in patent US20230114728A1 (Venatorx Pharmaceuticals, Inc., priority 2019, published 2023).
≈ marks a conversion by molar mass, not a printed value.

Assays:
[1] = biological target: T1, E. coli K12 PBP3 (Escherichia coli, UniProt P0AD68); experiment: biochemical; assay type: binding
T1 construct: made in house
Method in brief: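 Fluorescence polarization (ex 490/em 520 nm) competition of inhibitors against Bocillin-FL at 0.1 μM, read up to 60 min. Final PBP levels: E. coli PBP3 1.5 μM; A. baumannii PBP2 2.5 μM, PBP3 0.2 μM in Tris pH 8.0/NaCl/glycerol/Tween 20; N. gonorrhoeae PBP2 […] in Hepes pH 8.0/NaCl/glycerol. EC50 = concentration halving PBP-bound Bocillin-FL.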

[2] = biological target: T2, P. aeruginosa PBP3 (Pseudomonas aeruginosa, UniProt G3XD46); experiment: Bocillin-FL fluorescence polarization competition binding assay, P. aeruginosa PBP3; settings: fluorescence polarization competition binding assay using Bocillin-FL
T2 construct: made in house
Method in brief: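 Binding of boronic acid inhibitors to purified Pseudomonas aeruginosa (PA01) PBP3 was measured by fluorescence polarization competition with Bocillin-FL, a fluorescent penicillin V. Reactions of 80 μl contained 0.75 μM PBP3 and 0.1 μM Bocillin-FL in 50 mM Hepes (pH 8.0), 300 mM NaCl and 5% (v/v) glycerol, in black 384-well plates. FP (Excitation 490 nm, Emission 520 nm) was read for up to 60 minutes. EC50 is the concentration that halves PBP-bound Bocillin-FL.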

[3] = test system: N. gonorrhoeae ATCC 49226; experiment: Liquid broth MIC in Fastidious broth; assay type: cell-based; settings: Neisseria gonorrhoeae, ATCC49226; N. gonorrhoeae strain ATCC 49226; Fastidious broth; read-out: Minimum Inhibitory Concentration, N. gonorrhoeae ATCC 49226
Method in brief: (§1)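 Colonies were swabbed from chocolate agar after 24 h growth and standardised by optical density at 600 nm. Compounds were serially diluted twofold in Fastidious broth, and bacteria added to give 5×10^5 CFU/mL. After about 24 h at 36 °C in 5% CO2, the lowest concentration allowing under 10% growth was taken as MIC.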

[4] = test system: N. gonorrhoeae FA1090; experiment: Liquid broth MIC in Fastidious broth; assay type: cell-based; settings: Neisseria gonorrhoeae; N. gonorrhoeae strain FA1090; Fastidious broth; read-out: Minimum Inhibitory Concentration, N. gonorrhoeae FA1090
Method in brief: as §1

[5] = test system: N. gonorrhoeae H041; experiment: Liquid broth MIC in Fastidious broth; assay type: cell-based; settings: Neisseria gonorrhoeae, H041, read-out: Minimum Inhibitory Concentration, N. gonorrhoeae H041
Method in brief: as §1

[6] = test system: N. gonorrhoeae WHO G; experiment: Liquid broth MIC in Fastidious broth; assay type: cell-based; settings: Neisseria gonorrhoeae; N. gonorrhoeae strain WHO G; Fastidious broth; read-out: Minimum Inhibitory Concentration, N. gonorrhoeae WHO G
Method in brief: as §1

[7] = test system: N. gonorrhoeae WHO K; experiment: Liquid broth MIC in Fastidious broth; assay type: cell-based; settings: Neisseria gonorrhoeae, read-out: Minimum Inhibitory Concentration, N. gonorrhoeae WHO K
Method in brief: as §1

[8] = test system: N. gonorrhoeae WHO L; experiment: Liquid broth MIC in Fastidious broth; assay type: cell-based; settings: Neisseria gonorrhoeae; N. gonorrhoeae strain WHO L; Fastidious broth; read-out: Minimum Inhibitory Concentration, N. gonorrhoeae WHO L
Method in brief: as §1

[9] = test system: N. gonorrhoeae WHO Q; experiment: Liquid broth MIC in Fastidious broth; assay type: cell-based; settings: Neisseria gonorrhoeae, read-out: Minimum Inhibitory Concentration, N. gonorrhoeae WHO Q
Method in brief: as §1

[10] = test system: N. gonorrhoeae WHO Z; experiment: Liquid broth MIC in Fastidious broth; assay type: cell-based; settings: Neisseria gonorrhoeae, read-out: Minimum Inhibitory Concentration, N. gonorrhoeae WHO Z
Method in brief: as §1

T1 sequence (P0AD68 1-577): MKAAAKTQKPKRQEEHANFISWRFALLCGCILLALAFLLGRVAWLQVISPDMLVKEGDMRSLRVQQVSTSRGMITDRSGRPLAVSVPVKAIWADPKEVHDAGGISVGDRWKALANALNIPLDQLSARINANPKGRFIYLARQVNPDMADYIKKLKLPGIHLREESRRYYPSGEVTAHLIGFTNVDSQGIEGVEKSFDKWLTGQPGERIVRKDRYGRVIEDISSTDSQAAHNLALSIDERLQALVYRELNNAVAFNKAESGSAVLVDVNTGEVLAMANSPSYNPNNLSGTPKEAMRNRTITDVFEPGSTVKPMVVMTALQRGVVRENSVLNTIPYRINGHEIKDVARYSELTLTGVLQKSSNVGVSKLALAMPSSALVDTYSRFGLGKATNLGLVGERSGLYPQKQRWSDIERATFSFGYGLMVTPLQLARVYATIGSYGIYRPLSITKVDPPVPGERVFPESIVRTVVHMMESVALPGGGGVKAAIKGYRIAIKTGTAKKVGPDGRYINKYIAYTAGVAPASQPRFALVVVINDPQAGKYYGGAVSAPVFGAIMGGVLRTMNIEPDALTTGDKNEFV
T2 sequence (G3XD46 whole entry): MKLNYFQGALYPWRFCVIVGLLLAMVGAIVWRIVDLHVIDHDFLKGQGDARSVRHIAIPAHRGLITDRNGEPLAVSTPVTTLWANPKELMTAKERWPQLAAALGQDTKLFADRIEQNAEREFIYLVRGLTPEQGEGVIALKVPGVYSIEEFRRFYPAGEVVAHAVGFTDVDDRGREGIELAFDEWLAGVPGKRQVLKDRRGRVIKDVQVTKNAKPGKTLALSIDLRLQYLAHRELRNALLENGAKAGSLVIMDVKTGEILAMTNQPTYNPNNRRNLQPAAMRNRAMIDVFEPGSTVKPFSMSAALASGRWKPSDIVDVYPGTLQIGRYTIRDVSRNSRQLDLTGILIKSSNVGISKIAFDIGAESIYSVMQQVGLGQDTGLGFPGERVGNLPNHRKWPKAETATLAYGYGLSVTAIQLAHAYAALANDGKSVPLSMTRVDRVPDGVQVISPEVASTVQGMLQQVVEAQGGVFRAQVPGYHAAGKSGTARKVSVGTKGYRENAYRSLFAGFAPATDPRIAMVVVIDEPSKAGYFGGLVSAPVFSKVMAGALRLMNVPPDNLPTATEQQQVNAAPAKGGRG

| SMILES | EC50 [1] [µM] | P. aeruginosa PBP3 Potency [2] | MIC [3] [µg/mL] | MIC [4] [µg/mL] | MIC [5] [µg/mL] | MIC [6] [µg/mL] | MIC [7] [µg/mL] | MIC [8] [µg/mL] | MIC [9] [µg/mL] | MIC [10] [µg/mL] |
| --- | --- | --- | --- | --- | --- | --- | --- | --- | --- | --- |
| NCCN1CCN(C(=O)N[C@H](C(=O)N[C@H]2Cc3cccc(C(=O)O)c3OB2O)c2cc(F)c(O)c(F)c2)C(=O)C1=O (single isomer, unassigned) [Example 158] | 30 to 500 | C (C represents a potency between 10 and 30 μM) | > 64 | 4 to 8 (≈ 6.95 to 13.9 µM) | > 64 | 16 to 32 (≈ 27.8 to 55.6 µM) | > 64 | > 64 | > 64 | > 64 |
| NCCN1CCN(C(=O)N[C@@H](C(=O)N[C@H]2Cc3cccc(C(=O)O)c3OB2O)c2cc(F)c(O)c(F)c2)C(=O)C1=O (single isomer, unassigned) [Example 159] | < 30 | D (D represents a potency <10 μM) | 16 to 32 (≈ 27.8 to 55.6 µM) | 1 to 2 (≈ 1.74 to 3.48 µM) | > 64 | 4 to 8 (≈ 6.95 to 13.9 µM) | > 64 | > 64 | > 64 | > 64 |
| NCCN1CCN(C(=O)N[C@H](C(=O)N[C@H]2Cc3cccc(C(=O)O)c3OB2O)c2cc(Cl)c(O)c(Cl)c2)C(=O)C1=O (single isomer, unassigned) [Example 165] | 30 to 500 | D (D represents a potency <10 μM) | > 64 | 4 to 8 (≈ 6.58 to 13.2 µM) | > 64 | > 64 | > 64 | > 64 | > 64 | > 64 |
| NCCN1CCN(C(=O)N[C@H](C(=O)N[C@H]2Cc3cccc(C(=O)O)c3OB2O)c2cc(F)c(O)c(F)c2F)C(=O)C1=O (single isomer, unassigned) [Example 167] | 30 to 500 | D (D represents a potency <10 μM) | 16 to 32 (≈ 27 to 53.9 µM) | 1 to 2 (≈ 1.69 to 3.37 µM) | > 64 | 16 to 32 (≈ 27 to 53.9 µM) | > 64 | > 64 | > 64 | > 64 |
| NCCN1CCN(C(=O)N[C@@H](C(=O)N[C@H]2Cc3cccc(C(=O)O)c3OB2O)c2cc(F)c(O)c(F)c2F)C(=O)C1=O (single isomer, unassigned) [Example 168] | < 30 | D (D represents a potency <10 μM) | 4 to 8 (≈ 6.74 to 13.5 µM) | 0.25 to 0.5 (≈ 0.421 to 0.843 µM) | > 64 | 1 to 2 (≈ 1.69 to 3.37 µM) | 16 to 32 (≈ 27 to 53.9 µM) | 16 to 32 (≈ 27 to 53.9 µM) | 16 to 32 (≈ 27 to 53.9 µM) | 16 to 32 (≈ 27 to 53.9 µM) |
| NCCN1CCN(C(=O)N[C@H](C(=O)N[C@H]2Cc3cccc(C(=O)O)c3OB2O)c2ccc(O)c(F)c2F)C(=O)C1=O (single isomer, unassigned) [Example 169] | 30 to 500 | C (C represents a potency between 10 and 30 μM) | > 64 | 4 to 8 (≈ 6.95 to 13.9 µM) | > 64 | > 64 | > 64 | > 64 | > 64 | > 64 |
| NCCN1CCN(C(=O)N[C@@H](C(=O)N[C@H]2Cc3cccc(C(=O)O)c3OB2O)c2ccc(O)c(F)c2F)C(=O)C1=O (single isomer, unassigned) [Example 170] | < 30 | D (D represents a potency <10 μM) | 4 to 8 (≈ 6.95 to 13.9 µM) | 0.25 to 0.5 (≈ 0.435 to 0.869 µM) | > 64 | 4 to 8 (≈ 6.95 to 13.9 µM) | > 64 | > 64 | > 64 | > 64 |
| NCCN1CCN(C(=O)N[C@@H](C(=O)N[C@H]2Cc3ccc(F)c(C(=O)O)c3OB2O)c2cc(F)c(O)c(O)c2Cl)C(=O)C1=O (single isomer, unassigned) [Example 179] | < 30 | D (D represents a potency <10 μM) | > 64 | 16 to 32 (≈ 25.6 to 51.1 µM) | > 64 | 16 to 32 (≈ 25.6 to 51.1 µM) | > 64 | > 64 | > 64 | > 64 |
| NCCCN1CCN(C(=O)N[C@@H](C(=O)N[C@H]2Cc3ccc(F)c(C(=O)O)c3OB2O)c2cc(F)c(O)c(O)c2Cl)C(=O)C1=O (single isomer, unassigned) [Example 180] | < 30 | D (D represents a potency <10 μM) | 16 to 32 (≈ 25 to 50 µM) | 4 to 8 (≈ 6.25 to 12.5 µM) | > 64 | 16 to 32 (≈ 25 to 50 µM) | > 64 | > 64 | > 64 | > 64 |
| NS(=O)(=O)c1cccc(C(NC(=O)N2CCN(CCF)C(=O)C2=O)C(=O)N[C@H]2Cc3cccc(C(=O)O)c3OB2O)c1 (stereo partly drawn) [Example 100, (3R)-3-(2-(4-(2-fluoroethyl)-2,3-dioxopiperazine-1-carboxamido)-2-(3-sulfamoylphenyl)acetamido)-2-hydroxy-3,4-dihydro-2H-benzo[e][1,2]oxaborinine-8-carboxylic acid] | 30 to 500 | D (D represents a potency <10 μM) | 16 to 32 (≈ 26.4 to 52.9 µM) | 0.25 to 0.5 (≈ 0.413 to 0.826 µM) | 16 to 32 (≈ 26.4 to 52.9 µM) | 1 to 2 (≈ 1.65 to 3.3 µM) | 16 to 32 (≈ 26.4 to 52.9 µM) | > 64 | 16 to 32 (≈ 26.4 to 52.9 µM) | 16 to 32 (≈ 26.4 to 52.9 µM) |
| CCN1CCN(C(=O)NC(C(=O)N[C@H]2Cc3cccc(C(=O)O)c3OB2O)c2cc(Cl)c(O)cc2F)C(=O)C1=O (stereo partly drawn) [Example 101, (3R)-3-(2-(5-chloro-2-fluoro-4-hydroxyphenyl)-2-(4-ethyl-2,3-dioxopiperazine-1-carboxamido)acetamido)-2-hydroxy-3,4-dihydro-2H-benzo[e][1,2]oxaborinine-8-carboxylic acid] | < 30 | D (D represents a potency <10 μM) | 4 to 8 (≈ 6.94 to 13.9 µM) | 0.25 to 0.5 (≈ 0.433 to 0.867 µM) | 16 to 32 (≈ 27.7 to 55.5 µM) | 1 to 2 (≈ 1.73 to 3.47 µM) | 16 to 32 (≈ 27.7 to 55.5 µM) | 16 to 32 (≈ 27.7 to 55.5 µM) | 16 to 32 (≈ 27.7 to 55.5 µM) | 16 to 32 (≈ 27.7 to 55.5 µM) |
| C[C@@H](O)[C@@H](NC(=O)N1CCN(CCNC(=O)c2c(F)cc(O)c(O)c2Cl)C(=O)C1=O)C(=O)N[C@H]1Cc2ccc(F)c(C(=O)O)c2OB1O [Example 102, (R)-3-((2R,3R)-2-(4-(2-(2-chloro-6-fluoro-3,4-dihydroxybenzamido)ethyl)-2,3-dioxopiperazine-1-carboxamido)-3-hydroxybutanamido)-7-fluoro-2-hydroxy-3,4-dihydro-2H-benzo[e][1,2]oxaborinine-8-carboxylic acid] | 30 to 500 | D (D represents a potency <10 μM) | > 64 | 16 to 32 (≈ 22.9 to 45.9 µM) | > 64 | 16 to 32 (≈ 22.9 to 45.9 µM) | > 64 | > 64 | > 64 | > 64 |
| CCN1CCN(C(=O)NC(C(=O)N[C@H]2Cc3cccc(C(=O)O)c3OB2O)c2cc(F)c(O)cc2Cl)C(=O)C1=O (stereo partly drawn) [Example 103, (3R)-3-(2-(2-chloro-5-fluoro-4-hydroxyphenyl)-2-(4-ethyl-2,3-dioxopiperazine-1-carboxamido)acetamido)-2-hydroxy-3,4-dihydro-2H-benzo[e][1,2]oxaborinine-8-carboxylic acid] | < 30 | D (D represents a potency <10 μM) | 16 to 32 (≈ 27.7 to 55.5 µM) | 0.25 to 0.5 (≈ 0.433 to 0.867 µM) | 16 to 32 (≈ 27.7 to 55.5 µM) | 1 to 2 (≈ 1.73 to 3.47 µM) | 16 to 32 (≈ 27.7 to 55.5 µM) | > 64 | 16 to 32 (≈ 27.7 to 55.5 µM) | 16 to 32 (≈ 27.7 to 55.5 µM) |
| CCN1CCN(C(=O)NC(C(=O)N[C@H]2Cc3cccc(C(=O)O)c3OB2O)c2cc(F)c(O)cc2F)C(=O)C1=O (stereo partly drawn) [Example 104, (3R)-3-(2-(2,5-difluoro-4-hydroxyphenyl)-2-(4-ethyl-2,3-dioxopiperazine-1-carboxamido)acetamido)-2-hydroxy-3,4-dihydro-2H-benzo[e][1,2]oxaborinine-8-carboxylic acid] | < 30 | D (D represents a potency <10 μM) | 4 to 8 (≈ 7.14 to 14.3 µM) | 0.25 to 0.5 (≈ 0.446 to 0.892 µM) | 16 to 32 (≈ 28.6 to 57.1 µM) | 1 to 2 (≈ 1.78 to 3.57 µM) | 16 to 32 (≈ 28.6 to 57.1 µM) | 16 to 32 (≈ 28.6 to 57.1 µM) | 4 to 8 (≈ 7.14 to 14.3 µM) | 4 to 8 (≈ 7.14 to 14.3 µM) |
